The results in this text go back to PMC4775997, “Imidazopyridazine Inhibitors of Plasmodium falciparum Calcium-Dependent Protein Kinase 1 Also Target Cyclic GMP-Dependent Protein Kinase and Heat Shock Protein 90 To Kill the Parasite at Different Stages of Intracellular Development” (Antimicrobial Agents and Chemotherapy, 2016).

Each structure is given as a SMILES string. Read-outs that look alike come from different tables or passages of the source.

The target of one experiment is PfHSP90 (Plasmodium falciparum, UniProt Q8IC05). Kind of experiment: Tryptophan fluorescence binding, full-length PfHSP90. As to the method: The PCR product was cloned into pRSET-A (Life Technologies) between the BamHI and XhoI sites. Positive clones were confirmed by restriction digestion and sequencing. The clone was transformed into Escherichia coli Rosetta(pLysS) cells, and protein was expressed by induction with 0.1 mM isopropyl β-D-1-thiogalactopyranoside (IPTG) at 37°C for 2 h. PfHSP90 proteins were purified using Ni-nitrilotriacetic acid (NTA) affinity chromatography (Qiagen) as described in the manufacturer's protocol.
Tryptophan fluorescence analysis was performed using a PerkinElmer LS55 luminescence spectrometer. […] The binding buffer used for the reaction contained 50 mM Tris-HCl, pH 7.4, and 1 mM EDTA. Samples were excited at 280 nm, and tryptophan fluorescence measurements were carried out by scanning the emission spectrum in the wavelength range 300 to 400 nm. A maximum wavelength (λmax) of 346 nm was selected for all the calculations. The slit widths of excitation and emission were set at 2.5 and 5 nm, respectively. The difference in fluorescence intensity between protein alone and protein with various concentrations of 17-AAG or compound D was calculated and plotted against the different concentrations of the respective ligand used. The resultant hyperbolic curve was analyzed with GraphPad Prism software, using nonlinear regression analysis with single-site-specific binding as described previously ([32]).

For the next experiment, the target named is PfHSP90-NTD (Plasmodium falciparum, UniProt Q8IC05). As to the kind of experiment: Tryptophan fluorescence binding, PfHSP90 N-terminal domain. From the text: PfCDPK1 and PfCDPK1 T145G proteins were produced using methods described elsewhere ([23]). The PfHSP90 N-terminal domain (NTD) comprises the first 223 amino acids of PfHSP90. This region was amplified from the full-length PfHSP90-pRSET-A construct ([32]) using the following primers: primer 7, […]; primer 8, […].
The PCR product was cloned into pRSET-A (Life Technologies) between the BamHI and XhoI sites. Positive clones were confirmed by restriction digestion and sequencing. The clone was transformed into Escherichia coli Rosetta(pLysS) cells, and protein was expressed by induction with 0.1 mM isopropyl β-D-1-thiogalactopyranoside (IPTG) at 37°C for 2 h. […]
Tryptophan fluorescence analysis was performed using a PerkinElmer LS55 luminescence spectrometer. […] Samples were excited at 280 nm, and tryptophan fluorescence measurements were carried out by scanning the emission spectrum in the wavelength range 300 to 400 nm. […] The difference in fluorescence intensity between protein alone and protein with various concentrations of 17-AAG or compound D was calculated and plotted against the different concentrations of the respective ligand used. The resultant hyperbolic curve was analyzed with GraphPad Prism software, using nonlinear regression analysis with single-site-specific binding as described previously ([32]).

For another experiment, the system named is 3D7 CDPK1 T145T-HA. As to the kind of experiment: SYBR green assay, 3D7 CDPK1 T145T-HA line. It is filed as cell-based. Conditions: Plasmodium falciparum, 3D7, read-out: EC50, 3D7 CDPK1 T145T-HA. As to the method:
(§1) Aliquots of 100 μl of P. falciparum cultures 24 h after erythrocyte invasion were transferred into 96-well culture dishes. Cells were incubated with inhibitors for 48 or 96 h (starting parasitemias were 0.3% and 0.03%, respectively). All drug treatments were carried out in duplicate at a final dimethyl sulfoxide (DMSO) concentration of 0.05%. After incubation, a modification of a previously described SYBR green assay was performed ([27]). Cells were lysed by the addition of 25 μl of buffer (20 mM Tris-HCl, pH 8.0, 2 mM EDTA, pH 8.0, 1.6% Triton X-100, 0.16% saponin, 10× SYBR green I [Life Technologies]). After incubation in the dark for 2 h, fluorescence of the samples was determined using a FLUOStar Omega plate reader (BMG Labtech) with excitation and emission filters of 485 nm and 520 nm, respectively. EC50s were calculated from a four-parameter logistical fit of the data using Prism software (GraphPad Software, Inc.).
(§2) Parasites expressing CDPK1 T145G and CDPK1 T145T were generated as described previously ([28]). Briefly, a region of homology to facilitate integration of the plasmid via single-crossover homologous recombination was amplified from P. falciparum 3D7 genomic DNA at 194 bp upstream of the ATG to bp 435 of the open reading frame using primers 1 and 2 for the wild-type (WT) version and primers 1 and 3 for the glycine version. […]

A further experiment has as its system 3D7 CDPK1 T145G-HA. Kind of experiment: SYBR green assay, 3D7 CDPK1 T145G-HA line. In kind it is cell-based. Conditions: Plasmodium falciparum, 3D7, read-out: EC50, 3D7 CDPK1 T145G-HA. On the procedure:
as §1, §2

In a further experiment the target is WT CDPK1 (Plasmodium falciparum, UniProt P62344). Kind of experiment: biochemical.
The next experiment concerns the target T1, CDPK1 T145G (Plasmodium falciparum, UniProt P62344, T145G).
T1 construct: PfCDPK1 and PfCDPK1 T145G proteins were produced using methods described elsewhere; made in house
Kind of experiment: ParM ADP biosensor assay, CDPK1 T145G. It is filed as biochemical.

A further experiment has as its system trophozoite cell lysate. As to the kind of experiment: Affinity purification of targets of biotinylated compound D, LC-MS/MS. It is filed as binding, Plasmodium falciparum. As to conditions: biotin linked to R1 group of compound D, streptavidin-agarose. On the procedure: A total of 200 μl of high-capacity streptavidin agarose (Thermo Scientific) was resuspended in 1 ml of 250 μg/ml biotinylated compound D solution or a DMSO control. After incubation with mixing for 1 h at room temperature, unbound compound was removed by extensive washing with phosphate-buffered saline (PBS). The resin was incubated with trophozoite lysate containing 2 mg of protein in a total volume of 1.5 ml overnight at 4°C. The lysate was prepared by resuspending trophozoites in 20 mM Tris-HCl, pH 8.0, 10 mM MgCl2, 250 mM NaCl, 0.5 mM tris(2-carboxyethyl)phosphine (TCEP), 1× protein phosphatase inhibitor (Sigma-Aldrich), 1× complete protease inhibitors (Roche), and 0.1% Triton X-100 (Sigma-Aldrich). Insoluble proteins were removed by centrifugation at 15,000 × g for 20 min, and protein was quantitated using a detergent-compatible (DC) protein assay (Bio-Rad). […]
Proteins were run 4 mm into a 10% NuPAGE Bis-Tris gel (Life Technologies) and then excised using a clean scalpel blade. […] The resulting digests were analyzed by liquid chromatography-tandem mass spectrometry (LC-MS/MS) using an Ultimate 3000 nanoRSLC high-performance liquid chromatograph (HPLC), equipped with a 50-cm by 75-μm Acclaim Pepmap C18 column, coupled to a linear trap quadrupole (LTQ) Orbitrap Velos Pro equipped with a Nanoflex electrospray source (all Thermo Scientific). […]

Experiment [1] has as its system P. falciparum 3D7. As to the kind of experiment: Microscopic examination of Giemsa-stained smears (stage of action).
A further experiment concerns the target T2, PfPKG (Plasmodium falciparum, UniProt Q8I719).
T2 construct: plasmids (pTrcHisC) encoding full-length PfPKG and PfPKG T618Q with N-terminal His tags; His tag (N); made in house; host or cells: E. coli Rosetta2(DE3)
Kind of experiment: Microfluidic fluorescent shift assay of cGMP-dependent protein kinase activity. It is filed as biochemical.

Experiment [2] relates to P. falciparum 3D7. As to the kind of experiment: SYBR green I growth assay, wild-type parasites. In kind it is cell-based, Plasmodium falciparum. Conditions: Plasmodium falciparum.
Another experiment deals with T3, PfPKG T618Q (Plasmodium falciparum, UniProt Q8I719, T618Q).
T3 construct: plasmids (pTrcHisC) encoding full-length PfPKG and PfPKG T618Q with N-terminal His tags; His tag (N); made in house; host or cells: E. coli Rosetta2(DE3)
Kind of experiment: biochemical. In kind it is biochemical.

The subject of the next experiment is 3D7 PKG T618Q. As to the kind of experiment: microbe, parasite or virus in culture. In kind it is cell-based, Plasmodium falciparum. As to conditions: Plasmodium falciparum, 3D7, 96 h, read-out: Parasite inhibition EC50, 3D7 PKG T618Q.

PfHSP90-NTD, sequence (Q8IC05 entry or part of it): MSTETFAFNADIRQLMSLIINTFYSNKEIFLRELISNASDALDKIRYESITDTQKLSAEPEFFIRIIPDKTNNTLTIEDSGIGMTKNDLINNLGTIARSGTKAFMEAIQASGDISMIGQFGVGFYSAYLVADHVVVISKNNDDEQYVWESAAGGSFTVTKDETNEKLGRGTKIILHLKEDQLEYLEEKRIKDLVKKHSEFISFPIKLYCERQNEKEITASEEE
T1 sequence (P62344 whole entry T145G): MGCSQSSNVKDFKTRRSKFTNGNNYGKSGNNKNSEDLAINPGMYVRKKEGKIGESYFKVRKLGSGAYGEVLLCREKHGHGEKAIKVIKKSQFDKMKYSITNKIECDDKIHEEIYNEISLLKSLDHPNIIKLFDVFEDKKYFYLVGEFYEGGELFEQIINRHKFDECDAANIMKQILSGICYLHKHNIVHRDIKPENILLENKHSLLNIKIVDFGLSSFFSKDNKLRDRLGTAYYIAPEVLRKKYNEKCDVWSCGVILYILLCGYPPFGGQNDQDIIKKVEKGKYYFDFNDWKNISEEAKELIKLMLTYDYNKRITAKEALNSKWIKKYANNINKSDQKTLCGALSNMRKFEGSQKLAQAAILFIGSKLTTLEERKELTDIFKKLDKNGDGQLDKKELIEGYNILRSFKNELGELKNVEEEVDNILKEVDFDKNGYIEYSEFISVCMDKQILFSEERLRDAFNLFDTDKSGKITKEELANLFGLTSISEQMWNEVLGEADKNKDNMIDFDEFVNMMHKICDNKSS
PfHSP90, sequence (Q8IC05 entry or part of it): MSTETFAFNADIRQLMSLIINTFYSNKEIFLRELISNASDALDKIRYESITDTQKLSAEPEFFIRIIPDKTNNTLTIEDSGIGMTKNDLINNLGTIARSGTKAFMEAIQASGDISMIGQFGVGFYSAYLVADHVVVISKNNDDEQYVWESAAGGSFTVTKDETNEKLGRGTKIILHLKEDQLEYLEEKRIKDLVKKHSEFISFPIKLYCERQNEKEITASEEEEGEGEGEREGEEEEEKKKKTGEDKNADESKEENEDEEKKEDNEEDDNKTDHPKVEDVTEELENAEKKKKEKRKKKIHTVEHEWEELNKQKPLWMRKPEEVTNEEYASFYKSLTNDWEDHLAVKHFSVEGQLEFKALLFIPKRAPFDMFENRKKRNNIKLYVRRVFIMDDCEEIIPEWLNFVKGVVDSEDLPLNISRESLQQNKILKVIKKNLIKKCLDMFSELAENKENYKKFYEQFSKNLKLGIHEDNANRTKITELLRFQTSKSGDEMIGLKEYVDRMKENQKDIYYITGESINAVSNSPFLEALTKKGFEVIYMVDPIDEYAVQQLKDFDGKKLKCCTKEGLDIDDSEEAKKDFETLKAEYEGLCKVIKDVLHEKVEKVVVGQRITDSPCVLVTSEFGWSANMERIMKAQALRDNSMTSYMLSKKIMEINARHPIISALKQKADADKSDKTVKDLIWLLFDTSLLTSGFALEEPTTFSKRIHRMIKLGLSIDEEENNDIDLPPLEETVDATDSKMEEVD
T3 sequence (Q8I719 whole entry T618Q): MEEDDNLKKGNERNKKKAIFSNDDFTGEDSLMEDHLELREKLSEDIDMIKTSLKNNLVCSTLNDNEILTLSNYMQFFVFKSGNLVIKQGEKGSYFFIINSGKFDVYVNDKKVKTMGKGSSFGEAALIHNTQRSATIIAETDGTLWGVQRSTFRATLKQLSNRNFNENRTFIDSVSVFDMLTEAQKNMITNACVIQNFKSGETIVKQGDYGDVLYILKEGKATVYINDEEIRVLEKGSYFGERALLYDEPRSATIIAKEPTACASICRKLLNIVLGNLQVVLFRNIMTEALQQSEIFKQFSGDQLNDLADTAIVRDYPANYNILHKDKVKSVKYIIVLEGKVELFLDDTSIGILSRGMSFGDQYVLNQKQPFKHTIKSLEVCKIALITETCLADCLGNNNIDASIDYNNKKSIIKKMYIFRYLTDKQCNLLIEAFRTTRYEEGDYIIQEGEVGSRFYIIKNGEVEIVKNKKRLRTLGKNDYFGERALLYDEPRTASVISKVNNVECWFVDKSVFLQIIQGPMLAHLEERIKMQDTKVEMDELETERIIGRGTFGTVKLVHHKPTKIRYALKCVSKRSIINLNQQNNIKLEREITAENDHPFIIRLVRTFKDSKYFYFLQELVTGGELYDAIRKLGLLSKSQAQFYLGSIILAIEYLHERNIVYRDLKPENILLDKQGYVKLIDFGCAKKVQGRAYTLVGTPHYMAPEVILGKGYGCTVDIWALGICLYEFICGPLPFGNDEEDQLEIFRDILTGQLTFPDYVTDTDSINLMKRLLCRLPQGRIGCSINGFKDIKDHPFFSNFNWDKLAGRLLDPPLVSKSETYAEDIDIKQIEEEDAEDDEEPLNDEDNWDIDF
WT CDPK1, sequence (P62344 whole entry): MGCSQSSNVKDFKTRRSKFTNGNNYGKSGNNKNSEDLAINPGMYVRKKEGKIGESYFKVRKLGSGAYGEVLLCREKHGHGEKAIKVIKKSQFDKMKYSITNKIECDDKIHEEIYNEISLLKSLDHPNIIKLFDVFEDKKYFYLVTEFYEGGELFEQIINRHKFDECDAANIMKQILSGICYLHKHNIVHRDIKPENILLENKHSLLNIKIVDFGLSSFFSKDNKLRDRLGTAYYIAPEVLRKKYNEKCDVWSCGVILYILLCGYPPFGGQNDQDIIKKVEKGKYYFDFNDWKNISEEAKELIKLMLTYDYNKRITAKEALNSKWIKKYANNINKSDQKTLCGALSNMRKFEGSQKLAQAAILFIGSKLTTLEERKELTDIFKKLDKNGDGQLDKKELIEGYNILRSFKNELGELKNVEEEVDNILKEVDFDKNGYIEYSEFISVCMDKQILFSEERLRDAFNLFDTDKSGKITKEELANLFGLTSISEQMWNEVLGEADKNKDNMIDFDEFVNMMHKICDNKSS

As for `C=CCNC1=C2C[C@@H](C)C[C@H](OC)[C@H](O)[C@@H](C)/C=C(\C)[C@H](OC(N)=O)[C@@H](OC)/C=C\C=C(/C)C(=O)NC(=CC1=O)C2=O` [Compound 17-AAG, 17-N-allylamino-17-demethoxygeldanamycin, reference compound], the Kd (commonly a measure of binding affinity in units of concentration) at PfHSP90 (tryptophan fluorescence 346 nm, [SE] of triplicate measurements, read-out: Kd, full-length PfHSP90) came out at 8.7 µM; at PfHSP90-NTD (tryptophan fluorescence 346 nm, [SE] of triplicate measurements, read-out: Kd, PfHSP90-NTD) it was 15.8 µM.

With `CC(C)(C)n1nc(Cc2cccc3ccccc23)c2c(N)ncnc21` [NM-PP1, 1-(1,1-dimethylethyl)-3-(1-naphthalenylmethyl)-1H-pyrazolo[3,4-d]pyrimidin-4-amine], the values for the EC50 in the experiment on 3D7 CDPK1 T145T-HA and in the experiment with 3D7 CDPK1 T145G-HA were 11.6 µM and 10.3 µM, respectively.

As to `CC(C)(C)n1nc(-c2cccc3ccccc23)c2c(N)ncnc21` [NA-PP1, 1-(1,1-dimethylethyl)-3-(1-naphthalenyl)-1H-pyrazolo[3,4-d]pyrimidin-4-amine], the concentration for a half-maximal effect (EC50) – broadly, the concentration needed to bring the measured effect to its halfway point – came out at 14.3 µM in the experiment with 3D7 CDPK1 T145T-HA and 15.7 µM with 3D7 CDPK1 T145G-HA. Besides, the IC50 (as a rule, the concentration needed to halve the response being measured) was determined as 6.01 µM against WT CDPK1 and 0.15 µM on CDPK1 T145G. Further, at CDPK1 T145G (ratio of IC50s), the “Increase in sensitivity of CDPK1 T145G over wild-type enzyme” value is reported as 41 fold.

Regarding `CC(C)CCNc1ccc(-c2cnc3ccc(NC4CCN(C)CC4)nn23)cn1` [Compound 7], the Kd was found to be 6.17 µM on PfHSP90 and 10.7 µM on PfHSP90-NTD. Moreover, in the experiment with trophozoite cell lysate, the “Significant hit identified by LC-MS/MS” value was “HSP90”. In the experiment on P. falciparum 3D7 [1] (Table S1, ring-stage parasites, 10x EC50 for 48 h), the “Stage of action (before or after DNA synthesis)” value is recorded as “trophozoite”. In the experiment on P. falciparum 3D7 [1] (parasites about 21 h after invasion, 48 h at 10 times the EC50 determined by FACS (compound C 0.3 μM, compound D 4 μM)), the “Developmental arrest seen in smears” value is given as “failed to develop beyond late rings/early trophozoites”. The Stage of action result in the experiment on P. falciparum 3D7 [1] (ring stage parasites treated with 10 times the 96-h EC50 for 48 h) was “Trophozoite”. Besides, the values for the IC50 at PfPKG and against PfPKG T618Q were 0.484 µM and 15.5 µM, respectively. The EC50 in the experiment on P. falciparum 3D7 [2] (3D7, 48 h, Table S1, single experiment with duplicate samples, or mean of triplicate experiments (SD), read-out: EC50 48 hours) came to 0.36 µM; in the experiment with P. falciparum 3D7 [2] (3D7, 96 h, Table S1, single experiment with duplicate samples, or mean of triplicate experiments (SD), read-out: EC50 96 hours), 0.31 µM; in the experiment with P. falciparum 3D7 [2] (3D7, SYBR green I, 48 h incubation, mean of three independent experiments (SD), read-out: EC50 after treatment for 48 h), 0.355 µM; in the experiment with P. falciparum 3D7 [2] (3D7, SYBR green I, 96 h incubation, mean of three independent experiments (SD), read-out: EC50 after treatment for 96 h), 0.311 µM; in the experiment with P. falciparum 3D7 [2] (3D7, Table 2, SYBR green I, 96 h, single experiment, or mean (SD) of duplicate assays, read-out: Parasite inhibition EC50, 3D7), 0.427 µM; in the experiment on 3D7 PKG T618Q it was 0.477 µM.
